Assay results taken from publication PMC12028158, “Synthesis and In Vitro Evaluation of the Anticancer Effect of Novel Phosphonium Vindoline Derivatives” (International Journal of Molecular Sciences, 2025).

Assays:
Type in all cases: cell-based
[1] = test system: Breast Cancer panel; assay: NCI60 five-dose screen, panel mean; conditions: Homo sapiens, read-out: GI50 Mean
[2] = test system: HOP-62; assay: NCI60 five-dose screen; conditions: Homo sapiens, HOP-62
[3] = test system: 60 human tumor cell lines (NCI60); assay: NCI60 one-dose screen, overall mean
[4] = test system: OVCAR-3; assay: NCI60 five-dose screen; conditions: Homo sapiens, OVCAR-3
[5] = test system: NCI-H522; assay: NCI60 five-dose screen; conditions: Homo sapiens, NCI-H522
[6] = test system: EKVX; assay: NCI60 one-dose screen; conditions: Homo sapiens, read-out: Growth percent
[7] = test system: SF-268; assay: NCI60 one-dose screen; conditions: Homo sapiens, SF-268, read-out: Growth percent
[8] = test system: IGROV1; assay: NCI60 five-dose screen; conditions: Homo sapiens, IGROV-1
[9] = test system: SK-MEL-2; assay: NCI60 one-dose screen; conditions: Homo sapiens, SK-MEL-2, read-out: Growth percent
[10] = test system: HS 578T; assay: NCI60 one-dose screen; conditions: Homo sapiens, Hs-578T, read-out: Growth percent
[11] = test system: COLO 205; assay: NCI60 five-dose screen; conditions: Homo sapiens, COLO 205
[12] = test system: A498; assay: NCI60 five-dose screen; conditions: Homo sapiens, A498
[13] = test system: TK-10; assay: NCI60 five-dose screen; conditions: Homo sapiens, TK-10
[14] = test system: KM12; assay: NCI60 five-dose screen; conditions: Homo sapiens, KM12
[15] = test system: HCC-2998; assay: NCI60 five-dose screen; conditions: Homo sapiens, HCC 2998
[16] = test system: LOX IMVI; assay: NCI60 one-dose screen; conditions: Homo sapiens, read-out: Growth percent
[17] = test system: MALME-3M; assay: NCI60 one-dose screen; conditions: Homo sapiens, Malme-3M, read-out: Growth percent
[18] = test system: MALME-3M; assay: NCI60 five-dose screen; conditions: Homo sapiens, Malme-3M
[19] = test system: COLO 205; assay: NCI60 one-dose screen; conditions: Homo sapiens, COLO 205, read-out: Growth percent
[20] = test system: NCI-H23; assay: NCI60 one-dose screen; conditions: Homo sapiens, NCI-H23, read-out: Growth percent
[21] = test system: SF-295; assay: NCI60 five-dose screen; conditions: Homo sapiens, SF-295
[22] = test system: SF-268; assay: NCI60 five-dose screen; conditions: Homo sapiens, SF-268
[23] = test system: SW-620; assay: NCI60 five-dose screen; conditions: Homo sapiens, SW-620
[24] = test system: MDA-MB-435; assay: NCI60 one-dose screen; conditions: Homo sapiens, MDA-MB-435, read-out: Growth percent
[25] = test system: HL-60(TB); assay: NCI60 five-dose screen; conditions: Homo sapiens, HL-60
[26] = test system: SF-539; assay: NCI60 one-dose screen; conditions: Homo sapiens, SF-539, read-out: Growth percent
[27] = test system: RPMI-8226; assay: NCI60 five-dose screen; conditions: Homo sapiens, RPMI-8226
[28] = test system: HOP-92; assay: NCI60 five-dose screen; conditions: Homo sapiens, HOP-92
[29] = test system: MDA-MB-435; assay: NCI60 five-dose screen; conditions: Homo sapiens, MDA-MB-435
[30] = test system: SNB-19; assay: NCI60 one-dose screen; conditions: Homo sapiens, SNB-19, read-out: Growth percent
[31] = test system: IGROV1; assay: NCI60 one-dose screen; conditions: Homo sapiens, IGROV-1, read-out: Growth percent
[32] = test system: SK-MEL-5; assay: NCI60 one-dose screen; conditions: Homo sapiens, SK-MEL-5, read-out: Growth percent
[33] = test system: EKVX; assay: NCI60 five-dose screen; conditions: Homo sapiens
[34] = test system: A549/ATCC; assay: NCI60 five-dose screen; conditions: Homo sapiens, A549
[35] = test system: ACHN; assay: NCI60 five-dose screen; conditions: Homo sapiens
[36] = test system: OVCAR-4; assay: NCI60 five-dose screen; conditions: Homo sapiens, OVCAR-4
[37] = test system: DU-145; assay: NCI60 one-dose screen; conditions: Homo sapiens, DU-145, read-out: Growth percent
[38] = test system: T-47D; assay: NCI60 five-dose screen; conditions: Homo sapiens, T47D
[39] = test system: MDA-MB-468; assay: NCI60 five-dose screen; conditions: Homo sapiens, MDA-MB-468
[40] = test system: CCRF-CEM; assay: NCI60 one-dose screen; conditions: Homo sapiens, read-out: Growth percent
[41] = test system: SN12C; assay: NCI60 five-dose screen; conditions: Homo sapiens
[42] = test system: NCI-H460; assay: NCI60 one-dose screen; conditions: Homo sapiens, NCI-H460, read-out: Growth percent
[43] = test system: HT29; assay: NCI60 one-dose screen; conditions: Homo sapiens, HT-29, read-out: Growth percent
[44] = test system: CNS Cancer panel; assay: NCI60 five-dose screen, panel mean; conditions: Homo sapiens, read-out: GI50 Mean
[45] = test system: U251; assay: NCI60 five-dose screen; conditions: Homo sapiens, U-251
[46] = test system: ACHN; assay: NCI60 one-dose screen; conditions: Homo sapiens, read-out: Growth percent

CC[C@]12C=CCN3CC[C@@]4(c5ccc(OC)cc5N(C)[C@H]4[C@@](O)(C(=O)OC)[C@@H]1OC(=O)CCCC[P+](c1ccc(OC)cc1)(c1ccc(OC)cc1)c1ccc(OC)cc1)[C@@H]32 [10b]
GI50 [1]: 700 nM
GI50 [2]: 2420 nM
activity at 10 µM ([3]; Homo sapiens, 60 cell, read-out: Mean growth percent): -70.4%
average reduction / average cell death ([3]; one-dose, 10 µM, average over cell lines): more than 70%
GI50 [4]: 634 nM
GI50 [5]: 341 nM
activity at 10 µM [6]: -59.7%
activity at 10 µM [7]: -38.1%
GI50 [8]: 548 nM
activity at 10 µM [9]: -91.4%
activity at 10 µM [10]: -67.5%
GI50 [11]: 214 nM
GI50 [12]: 2930 nM
GI50 [13]: 1670 nM
GI50 [14]: 675 nM
GI50 [15]: 617 nM
activity at 10 µM [16]: -96.4%
activity at 10 µM [17]: -97.2%
GI50 [18]: 1130 nM
activity at 10 µM [19]: -64.9%
activity at 10 µM [20]: -90.7%
GI50 [21]: 1970 nM
GI50 [22]: 1470 nM
GI50 [23]: 1060 nM
activity at 10 µM [24]: -88.5%
GI50 [25]: 234 nM
activity at 10 µM [26]: -97.5%
GI50 [27]: 299 nM
GI50 [28]: 520 nM
GI50 [29]: 521 nM
activity at 10 µM [30]: -95.7%
activity at 10 µM [31]: -92%
activity at 10 µM [32]: -97%
GI50 [33]: 185 nM
GI50 [34]: 1650 nM
GI50 [35]: 6.28 µM
GI50 [36]: 1570 nM
activity at 10 µM [37]: -58.2%
GI50 [38]: 383 nM
GI50 [39]: 264 nM
activity at 10 µM [40]: -59.1%
GI50 [41]: 1180 nM
activity at 10 µM [42]: -87%
activity at 10 µM [43]: -63.1%
GI50 [44]: 1170 nM
GI50 [45]: 392 nM
activity at 10 µM [46]: -49.2%
